The values below come from US20240335404A1, “SUBSTITUTED ESTERS CONTAINING POLYOLS AND SACCHARIDES FOR TREATING HEPATOTOXICITY AND FATTY LIVER DISEASES” (SINEW PHARMA INC., priority 2015, published 2024).

This experiment has as its system Liver Injuries Induced by CCl4. The experiment in a line: Liver injuries induced by CCl4 in mice (GSP, AST/ALT, HAI). The experiment is classed as in vivo. How it is done: In the normal control, animals were administered with normal saline by intraperitoneal injection. In the control group of CCl4 induced liver injuries, animals were intraperitoneally injected with 10 ml/kg CCl4 (40% in corn oil) to induce hepatotoxicity. In the experimental group, animals were intraperitoneally injected with 10 ml/kg CCl4 (40% in corn oil) to induce hepatotoxicity, and 4 hours later, different ingredients of the present invention were administered by tube feeding. Blood was collected from the mice before administration with the ingredients of the present invention or at 24 hours after administration with the ingredients of the present invention for AST/ALT assays. Finally, animals were sacrificed at day 2 and blood were collected for AST/ALT assay and histological analysis was performed.
On the other hand, other experimental groups of mice were fed with the ingredients of the present invention for 12 weeks and the mice were subjected to GSP tests.
Liver damage is quantified by measuring plasma AST and ALT activity. AST and ALT are common indicators of hepatotoxicity and are measured by using the Synchron LXi 725 system (Beckman Instruments, U.S.).
Following scarification of the rats, histological analysis was performed. Liver samples were fixed with 10% phosphate-buffered formalin, dehydrated an embedded in paraffin, Sections were prepared in 5 μm thickness and then stained with hematoxylin and eosin and subjected to Periodic acid Schiff stain (PAS). The stained sections were observed under the optic microscope.
After the study was completed, all rats were subjected to GSP test. Rats were i.v. injected with 0.4 g/ml BW galactose solution 0.5 g/kg within 30 seconds and one blood sample was collected at 5, 10, 15, 30, 45 and 60 minutes post injection from the tail vein. Colorimetric galactose dehydrogenase is used to quantify the concentration of galactose and the test concentration ranges from 50 to 1,000 μg/ml. The within-day variation of each concentration is calculated using standard deviation and coefficient of variation (CV) and the maximum allowable coefficient of variation is 10% CV, whereas day-to-day variation is examined by comparing the slope and intercept of calibration curves. The GSP is the blood galactose concentration obtained 60 seconds after stopping the 30-second injection.
All data are represented in mean±standard deviation (SD) and the results are calculated using ANOVA to determine the significance. Statistical Package of the Social Science program (Version 13, SPSS Inc.) is used for calculations followed by post hoc test to examine the least significant difference for multiple comparisons so as to confirm the significant differences between groups and the average difference between groups was significant p<0.05.

Where [1] appears, read: CCl4-induced liver injuries, dose less than or equivalent to 100 mg per person.

Molecules are shown by their SMILES.

As for `OC[C@@H](O)[C@@H](O)[C@H](O)[C@H](O)CO` [Mannitol], under setting [1], the ALT was 77 ± 22 IU/L, the AST was 91 ± 28 IU/L, the GSP came out at 290 ± 78 mg/L and the “Total HAI score” value amounted to 0.8 ± 0.5. The “effect on CCl4-induced liver injuries” value (mice, CCl4) is on record as “liver injuries can be improved”.
